Data: patent publication US4933347A, “Diamidines and bis(imidazolines) for the treatment of and prophylaxis against pneumocystis carinii pneumonia” (University of North Carolina at Chapel Hill, priority 1988, dated 1990)
Entries after “also recorded” stand apart in the source; their conditions may differ.

System: Pneumocystis carinii
Test: Treatment of Pneumocystis carinii pneumonia in Sprague-Dawley rats (extent of disease by histologic score)
Format: in vivo, male Sprague-Dawley rats
Details: for Extent of Disease by Histologic Score: number of animals with score 0.5 / Extent of disease by histologic score (combined): number of animals in scoring group 0.5: 0.5 = <10 cysts found per 2 sections; for Extent of Disease by Histologic Score: number of animals with score 1 / Extent of disease by histologic score (combined): number of animals in scoring group 1: 1 = scattered cysts, <5% of lung involved; for Extent of Disease by Histologic Score: number of animals with score 2 / Extent of disease by histologic score (combined): number of animals in scoring group 2: 2 = scattered cysts; for Extent of Disease by Histologic Score: number of animals with score 2: 5-10% lung involved or small foci of infection; for Extent of Disease by Histologic Score: number of animals with score 3 / Extent of disease by histologic score (combined): number of animals in scoring group 3: 3 = scattered cysts; for Extent of disease by histologic score (combined): number of animals in scoring group 0.5 / Extent of disease by histologic score (combined): number of animals in scoring group 1 / Extent of disease by histologic score (combined): number of animals in scoring group 2 / Extent of disease by histologic score (combined): number of animals in scoring group 3 / Extent of disease by histologic score (combined): number of animals in scoring group 4: Table XII composite, 10 mg/kg; for Extent of disease by histologic score (combined): number of animals in scoring group 2: 5-10% of lung involved
Description: Induction and Treatment Of Pneumocystis Carinii in Sprague-Dawley Rats
Male Sprague-Dawley rats, barrier raised, non-certified virus free, weighing 150-200g were obtained from Hilltop Laboratories and housed individually. Animals were begun on a low (8%) protein diet (ICN Biomedicals, Cincinnati, OH) and drinking water containing tetracycline (0.5 mg/ml) and dexamethasone (1.0 μg/ml) immediately upon arrival. This treatment was given for the next 8 weeks, monitoring fluid intake daily and weighing animals weekly. Dilutions of the drinking solution were made when animals consumed too much fluid so as to prevent cortisone poisoning. At the beginning of the sixth week, animals were divided into groups of 8 animals each and the test compounds were administered daily by i.v. injection at a dose of 10 mg/kg, unless otherwise noted, for the next 14 days.
Animals were sacrificed at the end of the eighth week by chloroform inhalation and the left lung was removed aseptically and placed in sterile Hank's balanced salts solution without calcium or magnesium (HBSS-) for the ground tissue procedure. The right lung was inflated in situ with 10% […] and removed for histologic examination GMS staining. […]

[1] = 10 mg/kg i.v. daily, 14 days, 10-50% of lung involved with some intense areas of infection
[2] = 10 mg/kg i.v. daily, 14 days, 4 = >50% of lung involved with many intense areas of focal infection
[3] = 10 mg/kg unless otherwise noted

| SMILES | Extent of Disease by Histologic Score: number of animals with score 0.5 (10 mg/kg i.v. daily, 14 days) | Extent of Disease by Histologic Score: number of animals with score 1 (10 mg/kg i.v. daily, 14 days) | Extent of Disease by Histologic Score: number of animals with score 2 (10 mg/kg i.v. daily, 14 days) | Extent of Disease by Histologic Score: number of animals with score 3 [1] | Extent of Disease by Histologic Score: number of animals with score 4 [2] | Efficacy in treating PCP compared with control [3] | Efficacy in treating PCP compared with pentamidine [3] | Extent of disease by histologic score (combined): number of animals in scoring group 0.5 | Extent of disease by histologic score (combined): number of animals in scoring group 1 | Extent of disease by histologic score (combined): number of animals in scoring group 2 | Extent of disease by histologic score (combined): number of animals in scoring group 3 (10-50% of lung involved) | Extent of disease by histologic score (combined): number of animals in scoring group 4 (4 = >50% of lung involved) | other results |
| --- | --- | --- | --- | --- | --- | --- | --- | --- | --- | --- | --- | --- | --- |
| N=C(N)c1ccc(OCCOc2ccc(C(=N)N)cc2N)c(N)c1 [Example 3] | 4 animals | 4 animals | 0 animals | 0 animals | 0 animals | significantly better than the control | approximately comparable to pentamidine in efficacy | 4 animals | 4 animals | 0 animals | 0 animals | 0 animals |  |
| N=C(N)c1ccc(OCCCOc2ccc(C(=N)N)cc2)cc1 [Example 4] | 3 animals | 4 animals | 1 animals | 0 animals | 0 animals |  | better at controlling the extent of the pcp infection than either para- or meta- pentamidine | 3 animals | 4 animals | 1 animals | 0 animals | 0 animals |  |
| N=C(N)c1ccc(OCCCOc2ccc(C(=N)N)cc2N)c(N)c1 [Example 5] | 2 animals | 4 animals | 1 animals | 0 animals | 0 animals | significantly better than the control | approximately comparable to pentamidine in efficacy | 2 animals | 4 animals | 1 animals | 0 animals | 0 animals |  |
| N=C(N)c1ccc(NCCCNc2ccc(C(=N)N)cc2)cc1 [Example 7] | 5 animals | 1 animals | 2 animals | 0 animals | 0 animals |  | better than or equal to pentamidine | 5 animals | 1 animals | 2 animals | 0 animals | 0 animals | Efficacy in treating PCP compared with related compounds of the series (effect of chain length or substituent): most effective |
| N=C(N)c1ccc(OCCCCOc2ccc(C(=N)N)cc2)cc1 [Example 9, butamidine] |  |  | 0 animals | 0 animals | 0 animals |  | significantly better than pentamidine in controlling pcp; also recorded: significantly better than pentamidine at the 10 mg/kg dosage level | 8 animals | 0 animals | 0 animals | 0 animals | 0 animals | Extent of Disease by Histologic Score: number of animals with score 0.5 (0.1 mg/kg): 0 animals; Extent of Disease by Histologic Score: number of animals with score 1 (0.1 mg/kg): 0 animals; Extent of Disease by Histologic Score: number of animals with score 2 (0.1 mg/kg): 4 animals; Extent of Disease by Histologic Score: number of animals with score 3 (0.1 mg/kg, 10-50% of lung involved): 5 animals; Extent of Disease by Histologic Score: number of animals with score 4 (0.1 mg/kg, 4 = >50% of lung involved): 2 animals; Efficacy in treating PCP compared with pentamidine (1 mg/kg or 0.1 mg/kg): essentially no difference in the two compounds; Extent of Disease by Histologic Score: number of animals with score 0.5 (1 mg/kg): 0 animals; Extent of Disease by Histologic Score: number of animals with score 1 (1 mg/kg): 1 animals; Extent of Disease by Histologic Score: number of animals with score 2 (1 mg/kg): 3 animals; Extent of Disease by Histologic Score: number of animals with score 3 (1 mg/kg, 10-50% of lung involved): 5 animals; Extent of Disease by Histologic Score: number of animals with score 4 (1 mg/kg, 4 = >50% of lung involved): 3 animals |
| N=C(N)c1ccc(OCCCCOc2ccc(C(=N)N)cc2N)c(N)c1 [Example 10] | 2 animals | 5 animals | 1 animals | 0 animals | 0 animals | significantly better than the control | approximately comparable to pentamidine in efficacy | 2 animals | 5 animals | 1 animals | 0 animals | 0 animals |  |
| N=C(N)c1ccc(OCCCCCOc2ccc(C(=N)N)cc2N)c(N)c1 [Example 14] |  |  |  |  | 0 animals | significantly better than the control | improved performance in treating pcp; also recorded: approximately comparable to pentamidine in efficacy | 8 animals | 5 animals | 1 animals | 1 animals | 0 animals |  |
